Here are results for 14 compounds from patent US7989478B2, “Cinnamoyl compound and use of the same” (Sumitomo Chemical Company, Limited, priority 2003, dated 2011).

As usually defined, the inhibition is the relative decrease from the control value, in per cent.

The test system of experiment [1] is ability of TGF-β to promote transcription of a Type I collagen gene. Nature of the experiment: Inhibition of the ability of TGF-β to promote transcription of a Type I collagen gene (COL-Luc reporter gene assay). The experiment is classed as cell-based. The following applies: final concentration 1 μM; TGF-β added; normal human fetal skin fibroblast transfected with COL-Luc; 40 hours; read-out: Inhibition percentage. How it is done: 1×10^8 cells of a normal human fetal skin fibroblast (Clontech, catalogue No. CC-2509) were cultured at 37° C. overnight under 5% CO2 atmosphere. After the cultured cells were washed with a sodium phosphate buffer (hereinafter, referred to as PBS) twice, 3 ml of PBS was added thereto and the cells were scraped away the wall of a vessel using a cell scraper (Nalgen, catalogue No. 179693). The scraped cells were collected by centrifugation (1,500 rpm, 4° C., 15 min), and these were suspended in 20 ml of PBS and centrifuged again. To the resulting precipitates were added 11 ml of Solution 2 and 4.8 μl of pronase of DNA Extraction Kit (Stratagene, catalogue No. 200600). After shaken at 60° C. for 1 hour, the resulting mixture was allowed to stand in ice for 10 minutes. Then, 4 ml of Solution 3 of the kit was added to the mixture. After mixed, the mixture was allowed to stand in ice for 5 minutes and then centrifuged (3,000 rpm, 4° C., 15 min) to recover a supernatant. To the recovered supernatant was added 2 μl of RNase per 1 ml of the supernatant and the mixture was allowed to stand at 37° C. for 15 minutes. To the mixture was added 2-fold volume of ethanol. After mixed, a white thread-like substance (genomic DNA) appeared and the substance was recovered. The recovered genomic DNA was washed with 70% ethanol and then air-dried. The air-dried genomic DNA was dissolved in 500 μl of 10 mM Tris-HCl, 1 mM EDTA (pH 8.0) (hereinafter, referred to as TE).
The resulting genomic DNA solution (the amount equivalent to 1 μg of genomic DNA), each 1 μl (10 pmol/μl) of an oligonucleotide consisting of the nucleotide sequence represented by SEQ ID No:1 and an oligonucleotide consisting of the nucleotide sequence represented by SEQ ID No:2, 29 μL of distilled water, 5 μl of the buffer attached to TaKaRa LA Taq (TAKARA SHUZO, catalogue No. RR002A), 5 μL of a Mg^2+ solution, 5 μL of a dNTP mixture and 0.5 μl of TaKaRa LA Taq (TAKARA SHUZO, catalogue No. RR002A) were mixed. After the resulting mixed solution was incubated at 94° C. for 5 minutes, the mixed solution was subjected to 30 cycles, in which one cycle consists of incubation at 94° C. for 1 minute, at 60° C. for 1 minute and then at 72° C. for 1 minute. The mixed solution was electrophoresed on a 2% agarose gel to recover about 0.5 kb of a DNA. The recovered DNA was treated with phenol/chloroform and then precipitated with ethanol to recover the DNA. The resulting DNA was dissolved in ultrapure water. To this solution were added 2.5 μl of NheI and 2.5 μl of HindIII, and then incubated at 37° C. for 3 hours. Then, the solution was electrophoresed on a 2% agarose gel to recover about 3.5 kb of a DNA. The recovered DNA was precipitated with ethanol to recover again the DNA (hereinafter, referred to as the collagen promoter DNA).
On the other hand, the vector pGL3 (Promega, catalogue No. E1751) having the nucleotide sequence encoding firefly luciferase was digested with NheI and HindIII, and then subjected to agarose gel electrophoresis as described above to recover about 5 kb of a DNA. The recovered DNA was precipitated with ethanol to recover the DNA again. To the recovered DNA were added 44 μl of distilled water, 5 μl of Buffer attached to Alkaline Phosphatase (TAKARA SHUZO, catalogue No. 2120A) and 1 μl of Alkaline Phosphatase (TAKARA SHUZO, catalogue No. 2120A). The mixed solution was incubated at 65° C. for 30 minutes. Then, the mixed solution was treated with phenol/chloroform twice, and precipitated with ethanol to recover the DNA (hereinafter referred to as the Luc vector DNA). Then, after about 20 ng of the collagen promoter DNA and about 20 ng of the Luc vector DNA were mixed, the same amount of a DNA Ligation kit Ver2 enzyme solution was added and this was incubated overnight at 16° C. To the mixed solution was added Escherichia coli 5Hdα (TOYOBO, catalogue No. DNA-903), this was allowed to stand in ice for 30 minutes, and then incubated at 42° C. for 45 seconds. […]
Background: In a reporter assay the amount or activity of a reporter protein is the signal.

Experiment [2] concerns mRNA of Type I collagen gene in renal glomerulus. The experiment in a line: mRNA of Type I collagen gene in renal glomerulus of anti-Thy-1 antibody-administered rats (improvement of chronic renal failure). Type of experiment: in vivo, rat. To be noted: 15 mg/kg/day orally for 7 days in corn oil. The protocol:
IgG was purified from an ascites-lyophilized powder (CEDARLANE, lot No. 05122) containing an anti-rat CD90 (Thy1.1) monoclonal antibody using MAbTrap kit (Amersham Biosciences, catalogue No. 17-1128-01).
6 ml of a binding buffer was added to 3 ml of ascites to sufficiently recover it, and this was passed through a 0.22 μm filter. The resulting solution was applied to a pre-bufferized column, and the column was then washed with 10 ml of a binding buffer. Thereafter, the column was eluted with 5 ml of an elution buffer. From washing, each 1 ml was fractionated, and the protein concentration of each fraction was measured using bovine serum albumin as a standard. A single peak was confirmed from an elution pattern, and an IgG fraction was dialyzed against a physiological saline overnight at 4° C. The protein concentration of the resulting anti-Thy-1 antibody (IgG) was calculated.
The present compounds represented by the compound numbers (28a) (hereinafter, referred to as the present compound (28a)), the present compound represented by a compound number (30a) (hereinafter, referred to as the present compound (30a)), the present compound represented by a compound number (33a) (hereinafter, referred to as the present compound (33a)), the present compound represented by a compound number (10e) (hereinafter, referred to as the present compound (10e)), the present compound represented by a compound number (18e) (hereinafter referred to as the present compound (18e)), the present compound represented by a compound number (31e) (hereinafter, referred to as the present compound (31e)) and a corn oil which is a medium were weighed. These were mixed using a mortar and a pestle to prepare a […]. Using four 7-week old male Wistar rats [Nippon Charles River] per group, 60 μg/ml of the anti-Thy-1 antibody (IgG) or a physiological saline was intravenously injected via a tail vein at 5 ml/kg. […] A dose of the present compound was 15 mg/kg/day.
On the next day of final administration, a rat reared as described in the above (2) was slaughtered by collection of whole blood, and kidneys were isolated. A whole RNA was separated from the cortex of the isolated kidney using RNeasy Mini Kit (QIAGEN, catalogue No. 74106). To 5 μl (50 ng) of the separated whole RNA were added 1 μl of 20 μM oligo dT and 4 μl of RNase-free distilled water. After the mixture was incubated at 65° C. for 5 minutes, it was immediately ice-cooled. To 10 μl of the solution were added 4 μl of 5× buffer, 2.4 μl of MgCl2, 1 μl of 10 mM dNTP, 1 μl of RNasin, 1 μl of Improm II and 0.6 μl of RNase-free distilled water (all available from Promega), and a reverse transcription reaction was performed under the condition of at 25° C. for 5 minutes, at 42° C. for 1 hour, and at 70° C. for 15 minutes.
Into 5 μl of the reverse transcription reaction solution were mixed each 2 μl of each 1.25 pmol/μl of primers represented by SEQ ID NOS: 3 and 4, 1.25 μl of a probe (FAM-ctcgccttca tgcgcctgct agc-TAMRA) for detecting DNA of a Type I collagen gene represented by SEQ ID No:5, each 0.25 μl of Rodent GAPDH primers, 0.25 μl of a Rodent GAPDH probe, 12.5 μl of TaqMan Universal PCR Master Mix (all available from Applied Biosystem) and 1.5 μl of sterilized water in a well of Optical 96-Well Reaction Plate (Applied Biosystem, catalogue No. N801-0560). As a standard, in place of 5 μl of the reverse transcription reaction solution, each 5 μl of 500, 250, 125, 62.5, 31.25, 15.625 ng/μl rat renal cortex cDNA which had been prepared in advance was used. Thereafter, using Gene Amp 7900 (Applied Biosystem), PCR was performed under the condition of at 50° C. for 5 minutes, and 40 cycles in which one cycle is at 95° C. for 15 seconds and at 60° C. for 1 minute. […]

`COC(=O)COc1cccc(C=CC(=O)c2c(O)cc(C)[nH]c2=O)c1` [Compound No. (7a), 4-hydroxy-3-[3-[3-[(methoxycarbonyl)methoxy]phenyl]-1-oxo-2-propenyl]-6-methyl-2(1H)-pyridinone]: the inhibition at 1 µM in experiment [1] is at least 70%.
As for `Cc1cc(O)c(C(=O)C=Cc2cccc(OCC#N)c2)c(=O)n1C` [Compound No. (11a), 4-hydroxy-3-[3-[3-(cyanomethoxy)phenyl]-1-oxo-2-propenyl]-1,6-dimethyl-2(1H)-pyridinone], the inhibition at 1 µM in experiment [1] was at least 70%.
Still for that read-out and setting: next, `Cn1c(=O)c(C(=O)C=Cc2cccc(OCC#N)c2)c(O)c2ccccc21` [Compound No. (11e), 1-methyl-4-hydroxy-3-[3-[3-(cyanomethoxy)phenyl]-1-oxo-2-propenyl]-2(1H)-quinolinone]: at least 70%; `Cc1cc(O)c(C(=O)C=Cc2ccc(OCC#N)cc2)c(=O)[nH]1` [Compound No. (13a), 4-hydroxy-3-[3-[4-(cyanomethoxy)phenyl]-1-oxo-2-propenyl]-6-methyl-2(1H)-pyridinone]: at least 70%; `N#CCOc1ccc(C=CC(=O)c2c(O)c3ccccc3[nH]c2=O)cc1` [Compound No. (13e), 4-hydroxy-3-[3-[4-(cyanomethoxy)phenyl]-1-oxo-2-propenyl]-2(1H)-quinolinone]: at least 70%.
Turning to `COCC(=O)Nc1cccc(C=CC(=O)c2c(O)cc(C)[nH]c2=O)c1` [Compound No. (18a), 4-hydroxy-3-[3-[3-(methoxyacetylamino)phenyl]-1-oxo-2-propenyl]-6-methyl-2(1H)-pyridinone], the inhibition at 1 µM in experiment [1] was at least 70%.
In the case of `COCC(=O)Nc1ccc(C=CC(=O)c2c(O)cc(C)[nH]c2=O)cc1` [Compound No. (20a), 4-hydroxy-3-[3-[4-(methoxyacetylamino)phenyl]-1-oxo-2-propenyl]-6-methyl-2(1H)-pyridinone], in experiment [1], the inhibition at 1 µM is at least 70%.
Still for that read-out and setting: to `COCCOC(=O)Nc1cccc(C=CC(=O)c2c(O)c3ccccc3[nH]c2=O)c1` [Compound No. (21e), 4-hydroxy-3-[3-[3-[(2-methoxyethoxy)carbonylamino]phenyl]-1-oxo-2-propenyl]-2(1H)-quinolinone] belongs at least 70%.
Same read-out and setting: to `COCCNC(=O)Nc1cccc(C=CC(=O)c2c(O)cc(C)[nH]c2=O)c1` [Compound No. (22a), 4-hydroxy-3-[3-[3-[(2-methoxyethyl)aminocarbonylamino]phenyl]-1-oxo-2-propenyl]-6-methyl-2(1H)-pyridinone] belongs at least 70%.
With `CS(=O)(=O)NC(=O)c1cccc(C=CC(=O)c2c(O)c3ccccc3[nH]c2=O)c1` [Compound No. (26e), 4-hydroxy-3-[3-[3-[(methanesulfonyl)aminocarbonyl]phenyl]-1-oxo-2-propenyl]-2(1H)-quinolinone], the inhibition at 1 µM in experiment [1] was at least 70%.
Still for that read-out and setting: next, `COC(=O)CNC(=O)c1cccc(C=CC(=O)c2c(O)c3ccccc3[nH]c2=O)c1` [Compound No. (28e), 4-hydroxy-3-[3-[3-[[(methoxycarbonylmethyl)amino]carbonyl]phenyl]-1-oxo-2-propenyl]-2(1H)-quinolinone]: at least 70%.
As to `COC(=O)CNC(=O)c1ccc(C=CC(=O)c2c(O)cc(C)[nH]c2=O)cc1` [Compound No. (30a), 4-hydroxy-3-[3-[4-[[(methoxycarbonylmethyl)amino]carbonyl]phenyl]-1-oxo-2-propenyl]-6-methyl-2(1H)-pyridinone], in experiment [2] (Example 5, anti-Thy-1 antibody rats), the “ability to improve chronic renal failure” value was “have the ability to improve chronic renal failure”. The “mRNA of collagen gene” value in experiment [2] (Table 3, Type I collagen amount/GAPDH amount, renal cortex, anti-Thy-1 antibody +, Wistar rats, control group 3.4, normal group 1.9, test results p < 0.05) amounted to 2.4.
For the compound `N#CCNC(=O)c1cccc(C=CC(=O)c2c(O)c3ccccc3[nH]c2=O)c1` [Compound No. (33e), 4-hydroxy-3-[3-[3-[[(cyanomethyl)amino]carbonyl]phenyl]-1-oxo-2-propenyl]-2(1H)-quinolinone], the inhibition at 1 µM in experiment [1] was at least 70%.
The same measure, in the same setting: next, `Cc1cc(O)c(C(=O)C=Cc2cccc(C(=O)NCC#N)c2)c(=O)[nH]1` [Compound No. (35a), 4-hydroxy-3-[3-[3-[(cyanomethyl)aminocarbonyl]phenyl]-1-oxo-2-propenyl]-6-methyl-2(1H)-pyridinone]: at least 70%.
